Results reported in patent publication US20060069132A1, “Azolecarboxamide herbicides” (priority 2004, published 2006).

Tests used:
lambsquarters = assay: Test B pre-/postemergence herbicide test; type: in vivo, Chenopodium album; conditions: for Lambsquarters plant response rating (0 to 100 scale) / Plant response rating, Lambsquarters: 0 = no effect, 100 = complete control, preemergence; for Lambsquarters plant response rating: postemergence
Summary of the method: (§1)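 Formulation: non-phytotoxic solvent mix with surfactant. Timing: preemergence on seed and postemergence on 2–18 cm plants, applied concurrently. Readout after 13–15 d greenhouse: visual 0–100 control rating against controls.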

barnyardgrass [1] = assay: Test B flooded paddy test; type: in vivo, Echinochloa crus-galli; conditions: 1000 g ai/ha, scale 0 to 100 (0 no effect, 100 complete control)
Summary of the method: (§2)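 Treated at 2-leaf (paddy) or 1–4-leaf, 2–18 cm (postemergence); greenhouse 13–15 d; visual score vs control, 0 none to 100 complete control; dash = not tested.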

giant foxtail = assay: Test B pre-/postemergence herbicide test; type: in vivo, Setaria faberi; conditions: for Foxtail, Giant plant response rating (0 to 100 scale) / Plant response rating, Foxtail, Giant: 0 = no effect, 100 = complete control, preemergence; for Foxtail, Giant plant response rating: postemergence
Summary of the method: as §1

cocklebur = assay: Test B pre-/postemergence herbicide test; type: in vivo, Xanthium strumarium; conditions: for Cocklebur plant response rating (0 to 100 scale) / Plant response rating, Cocklebur: 0 = no effect, 100 = complete control, preemergence; for Plant response rating, Cocklebur / Cocklebur plant response rating: visual rating; for Cocklebur plant response rating: postemergence, scale 0 (no effect) to 100 (complete control)
Summary of the method: (§3)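 Herbicidal effect was judged by eye on a 0–100 scale after plants stood 13 to 15 days in the greenhouse following pre- or postemergence treatment with surfactant-containing formulations.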

morningglory = assay: Test B pre-/postemergence herbicide test; type: in vivo, Ipomoea coccinea; conditions: for Morningglory plant response rating (0 to 100 scale) / Plant response rating, Morningglory: 0 = no effect, 100 = complete control, preemergence; for Morningglory plant response rating: postemergence
Summary of the method: as §3

large crabgrass = assay: Test B pre-/postemergence herbicide test; type: in vivo, Digitaria sanguinalis; conditions: for Crabgrass, Large plant response rating (0 to 100 scale) / Plant response rating, Crabgrass, Large: 0 = no effect, 100 = complete control, preemergence; for Crabgrass, Large plant response rating: postemergence
Summary of the method: as §1

velvetleaf = assay: Test B pre-/postemergence herbicide test; type: in vivo, Abutilon theophrasti; conditions: for Velvetleaf plant response rating (0 to 100 scale) / Plant response rating, Velvetleaf: 0 = no effect, 100 = complete control, preemergence; for Velvetleaf plant response rating: postemergence
Summary of the method: as §1

rice = assay: Test B flooded paddy test; type: in vivo, Oryza sativa; conditions: 1000 g ai/ha, scale 0 to 100 (0 no effect, 100 complete control)
Summary of the method: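 Scale 0–100: zero equals no visible effect, 100 complete control, judged by eye relative to controls. Timing: 13 to 15 days in greenhouse post-treatment. Growth stage at spraying: two leaves (paddy) or one to four leaves, 2–18 cm (postemergence).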

corn = assay: Test B pre-/postemergence herbicide test; type: in vivo, Zea mays; conditions: for Corn plant response rating (0 to 100 scale) / Plant response rating, Corn: 0 = no effect, 100 = complete control, preemergence; for Corn plant response rating: postemergence
Summary of the method: as §1

barnyardgrass [2] = assay: Test B pre-/postemergence herbicide test; type: in vivo, Echinochloa crus-galli; conditions: for Barnyardgrass plant response rating (0 to 100 scale) / Plant response rating, Barnyardgrass: 0 = no effect, 100 = complete control, preemergence; for Plant response rating, Barnyardgrass / Barnyardgrass plant response rating: visual rating; for Barnyardgrass plant response rating: postemergence, scale 0 (no effect) to 100 (complete control)
Summary of the method: as §3

Surinam grass = assay: Test B pre-/postemergence herbicide test; type: in vivo, Urochloa decumbens; conditions: for Surinam Grass plant response rating (0 to 100 scale) / Plant response rating, Surinam Grass: 0 = no effect, 100 = complete control, preemergence; for Surinam Grass plant response rating: postemergence
Summary of the method: as §1

wheat = assay: Test B postemergence herbicide test; type: in vivo, Triticum aestivum; parameters: key to Wheat plant response rating: 0 = no effect, 100 = complete control; conditions: postemergence
Summary of the method: as §2

wild oat = assay: Test B postemergence herbicide test; type: in vivo, Avena fatua; conditions: postemergence
Summary of the method: as §2

pigweed = assay: Test B pre-/postemergence herbicide test; type: in vivo, Amaranthus retroflexus; conditions: for Pigweed plant response rating (0 to 100 scale) / Plant response rating, Pigweed: 0 = no effect, 100 = complete control, preemergence; for Pigweed plant response rating: postemergence
Summary of the method: as §1

ducksalad = assay: Test B flooded paddy test; type: in vivo, Heteranthera limosa; conditions: 1000 g ai/ha, scale 0 to 100 (0 no effect, 100 complete control)
Summary of the method: as §2

[3] = 125 g ai/ha, visual rating, scale 0 (no effect) to 100 (complete control)
[4] = 500 g ai/ha, scale 0 to 100, 0 is no effect, 100 is complete control
[5] = 500 g ai/ha, visual rating, scale 0 (no effect) to 100 (complete control)

Structure (SMILES): CCn1nc(C(C)(C)C)cc1C(=O)Nc1cc(C(=O)N(C)OC)ccc1F [Compound 244]
- Lambsquarters plant response rating (0 to 100 scale) (lambsquarters; 125 g ai/ha): 90
- Plant response rating, Lambsquarters (lambsquarters; 500 g ai/ha, visual rating): 100
- Lambsquarters plant response rating (lambsquarters; [3]): 40
- Lambsquarters plant response rating (lambsquarters; [4]): 70
- Barnyardgrass plant response rating (barnyardgrass [1]): 90
- Foxtail, Giant plant response rating (0 to 100 scale) (giant foxtail; 125 g ai/ha): 80
- Plant response rating, Foxtail, Giant (giant foxtail; 500 g ai/ha, visual rating): 90
- Foxtail, Giant plant response rating (giant foxtail; [3]): 20
- Foxtail, Giant plant response rating (giant foxtail; [4]): 30
- Cocklebur plant response rating (0 to 100 scale) (cocklebur; 125 g ai/ha): 0
- Plant response rating, Cocklebur (cocklebur; 500 g ai/ha): 20
- Cocklebur plant response rating (cocklebur; 125 g ai/ha): 30
- Cocklebur plant response rating (cocklebur; 500 g ai/ha): 80
- Morningglory plant response rating (0 to 100 scale) (morningglory; 125 g ai/ha): 0
- Plant response rating, Morningglory (morningglory; 500 g ai/ha, visual rating): 20
- Morningglory plant response rating (morningglory; [3]): 10
- Morningglory plant response rating (morningglory; [4]): 20
- Crabgrass, Large plant response rating (0 to 100 scale) (large crabgrass; 125 g ai/ha): 90
- Plant response rating, Crabgrass, Large (large crabgrass; 500 g ai/ha, visual rating): 100
- Crabgrass, Large plant response rating (large crabgrass; [3]): 10
- Crabgrass, Large plant response rating (large crabgrass; [4]): 30
- Velvetleaf plant response rating (0 to 100 scale) (velvetleaf; 125 g ai/ha): 70
- Plant response rating, Velvetleaf (velvetleaf; 500 g ai/ha, visual rating): 100
- Velvetleaf plant response rating (velvetleaf; [3]): 40
- Velvetleaf plant response rating (velvetleaf; [4]): 60
- Rice plant response rating (rice): 90
- Corn plant response rating (0 to 100 scale) (corn; 125 g ai/ha): 30
- Plant response rating, Corn (corn; 500 g ai/ha, visual rating): 60
- Corn plant response rating (corn; [3]): 10
- Corn plant response rating (corn; [4]): 30
- Barnyardgrass plant response rating (0 to 100 scale) (barnyardgrass [2]; 125 g ai/ha): 80
- Plant response rating, Barnyardgrass (barnyardgrass [2]; 500 g ai/ha): 90
- Barnyardgrass plant response rating (barnyardgrass [2]; 125 g ai/ha): 10
- Barnyardgrass plant response rating (barnyardgrass [2]; 500 g ai/ha): 50
- Surinam Grass plant response rating (0 to 100 scale) (Surinam grass; 125 g ai/ha): 70
- Plant response rating, Surinam Grass (Surinam grass; 500 g ai/ha, visual rating): 90
- Surinam Grass plant response rating (Surinam grass; [3]): 20
- Surinam Grass plant response rating (Surinam grass; [4]): 30
- Wheat plant response rating (wheat; [3]): 10
- Wheat plant response rating (wheat; [4]): 20
- Oat, Wild plant response rating (wild oat; [3]): 30
- Oat, Wild plant response rating (wild oat; [4]): 50
- Pigweed plant response rating (0 to 100 scale) (pigweed; 125 g ai/ha): 90
- Plant response rating, Pigweed (pigweed; 500 g ai/ha, visual rating): 100
- Pigweed plant response rating (pigweed; [3]): 50
- Pigweed plant response rating (pigweed; [4]): 70
- Ducksalad plant response rating (ducksalad): 90

Structure (SMILES): CCc1nc(C(C)(C)C)sc1C(=O)Nc1cccc(C(=O)NC(C)(C)C)n1 [Compound 216]
- Lambsquarters plant response rating (0 to 100 scale) (lambsquarters; 125 g ai/ha): 90
- Plant response rating, Lambsquarters (lambsquarters; 500 g ai/ha, visual rating): 100
- Lambsquarters plant response rating (lambsquarters; [3]): 0
- Lambsquarters plant response rating (lambsquarters; [5]): 0
- Barnyardgrass plant response rating (barnyardgrass [1]; visual rating, 13 to 15 days): 20
- Foxtail, Giant plant response rating (0 to 100 scale) (giant foxtail; 125 g ai/ha): 0
- Plant response rating, Foxtail, Giant (giant foxtail; 500 g ai/ha, visual rating): 60
- Foxtail, Giant plant response rating (giant foxtail; [3]): 0
- Foxtail, Giant plant response rating (giant foxtail; [5]): 20
- Cocklebur plant response rating (0 to 100 scale) (cocklebur; 125 g ai/ha): 0
- Plant response rating, Cocklebur (cocklebur; 500 g ai/ha): 0
- Cocklebur plant response rating (cocklebur; 125 g ai/ha): 0
- Cocklebur plant response rating (cocklebur; 500 g ai/ha): 70
- Morningglory plant response rating (0 to 100 scale) (morningglory; 125 g ai/ha): 0
- Plant response rating, Morningglory (morningglory; 500 g ai/ha, visual rating): 0
- Morningglory plant response rating (morningglory; [3]): 0
- Morningglory plant response rating (morningglory; [5]): 0
- Crabgrass, Large plant response rating (0 to 100 scale) (large crabgrass; 125 g ai/ha): 0
- Plant response rating, Crabgrass, Large (large crabgrass; 500 g ai/ha, visual rating): 40
- Crabgrass, Large plant response rating (large crabgrass; [3]): 0
- Crabgrass, Large plant response rating (large crabgrass; [5]): 0
- Velvetleaf plant response rating (0 to 100 scale) (velvetleaf; 125 g ai/ha): 0
- Plant response rating, Velvetleaf (velvetleaf; 500 g ai/ha, visual rating): 0
- Velvetleaf plant response rating (velvetleaf; [3]): 0
- Velvetleaf plant response rating (velvetleaf; [5]): 60
- Rice plant response rating (rice; visual rating, 13 to 15 days): 30
- Corn plant response rating (0 to 100 scale) (corn; 125 g ai/ha): 0
- Plant response rating, Corn (corn; 500 g ai/ha, visual rating): 0
- Corn plant response rating (corn; [3]): 0
- Corn plant response rating (corn; [5]): 10
- Barnyardgrass plant response rating (0 to 100 scale) (barnyardgrass [2]; 125 g ai/ha): 0
- Plant response rating, Barnyardgrass (barnyardgrass [2]; 500 g ai/ha): 40
- Barnyardgrass plant response rating (barnyardgrass [2]; 125 g ai/ha): 0
- Barnyardgrass plant response rating (barnyardgrass [2]; 500 g ai/ha): 10
- Surinam Grass plant response rating (0 to 100 scale) (Surinam grass; 125 g ai/ha): 0
- Plant response rating, Surinam Grass (Surinam grass; 500 g ai/ha, visual rating): 70
- Surinam Grass plant response rating (Surinam grass; [3]): 0
- Surinam Grass plant response rating (Surinam grass; [5]): 20
- Wheat plant response rating (wheat; [3]): 0
- Wheat plant response rating (wheat; [5]): 10
- Oat, Wild plant response rating (wild oat; [3]): 0
- Oat, Wild plant response rating (wild oat; [5]): 0
- Pigweed plant response rating (0 to 100 scale) (pigweed; 125 g ai/ha): 0
- Plant response rating, Pigweed (pigweed; 500 g ai/ha, visual rating): 90
- Pigweed plant response rating (pigweed; [3]): 0
- Pigweed plant response rating (pigweed; [5]): 20
- Ducksalad plant response rating (ducksalad; visual rating, 13 to 15 days): 80
